Results as given in patent publication US20220040166A1, “Methods and Compositions of Treating an Ophthalmic Condition” (KARTOS THERAPEUTICS, priority 2018, published 2022).
Converted amounts (≈) assume the structure as drawn. Marks after values point to notes of the source that are not given here.

Columns and labels:
[1] = Tolerability of intravitreally administered solution of the compound of Formula (I)
Method: Based on expected solubility, a maximum feasible intravitreal dose of 44 μg of the compound of Formula (I) in 50 uL pH 7.85 aqueous buffer (sterile saline for injection, phosphate buffered saline or HEPES buffered saline) was administered to Dutch Belted rabbits.
Ophthalmoscopic examinations (slit lamp), ocular scoring, and intraocular pressure were observed through 5 days post-administration.

[2] = In vitro release of Comp-A from nanoparticles by dialysis against HBS (pH 7) at 37° C.; assay type: physicochemical; conditions: dialyzed against >1000X volume HBS (pH 7) at 37° C.
Method: • 5. Immediately following formulation, NPs were diluted to 4× volume in HBS. • 6. Pall 30 kDa MWCO centrifugal filters were used for solvent exchange to HBS and to concentrate formulations (2000×g, 21° C.). • 7. Particle size and polydispersity index (PDI) were analyzed using a Malvern Zetasizer (dynamic light scattering; DLS). […] Final formulations were sterile filtered through 0.22 μm syringe filters and stored at −80° C. in MrFrosty freezing containers. The following day formulations were moved to cryogenic freezer boxes for storage prior to shipping. • 9. A sample of each formulation was thawed to room temperature and dialyzed against >1000 volumes of 1×HBS (pH 7) at 37° C. for 6 hours. Samples were collected at 2 mins, 30 mins, 2 hours and 6 hours and analyzed for drug content by UPLC to determine particle release characteristics.

[3] = tested on: MDM2-amplified tumor cell line SJSA; assay: Induction of p21 mRNA by Comp-A in SJSA cells; assay type: cell-based
[4] = 44 μg in 50 uL pH 7.85 aqueous buffer, intravitreal, rabbit

CC(C)[C@@H](CS(=O)(=O)C(C)C)N1C(=O)[C@@](C)(CC(=O)O)C[C@H](c2cccc(Cl)c2)[C@H]1c1ccc(Cl)cc1 [Comp-A, 2-((3R,5R,6S)-5-(3-chlorophenyl)-6-(4-chlorophenyl)-1-((S)-1-(isopropylsulfonyl)-3-methylbutan-2-yl)-3-methyl-2-oxopiperidin-3-yl) Acetic Acid]
Changes in intra-ocular pressure [1, 4]: no changes | Ophthalmologic observations through 5 days [1, 4]: no ophthalmologic observations | Tolerability ([1]; 22 microgram/eye in PBS (1×) and in HEPES buffered saline): no findings | Tolerability ([1]; 44 microgram/eye in PBS (1×) and in HEPES buffered saline): no findings | % Release after 2 h dialysis ([2]; 2 h): <1% | % Release after 6 h dialysis ([2]; 6 h): 0* % | EC50 [3]: 0.0262 µg/mL (≈ 0.0461 µM)
